# Results: patent US20160074390A1, “HUMAN DOSING OF PHOSPHATASE INHIBITOR” (Lixte Biotechnology, Inc., priority 2014, published 2016)
# Values joined by “and” are separate entries in the source; they are usually repeats but may differ in a detail not shown here. Equal entries are not always repeated. Where two headings read alike, the source gives them in different places.
# How the values were obtained:
# Akt = settings: Lu et al. 2009; cited from earlier work
# [1] = Solubility and stability of LB-100 solution; type: physicochemical; settings: for stability of formulation: in monosodium glutamate, pH 10.5
# Source text: LB-100 is a water soluble enantiomeric zwitterion provided as a sterile solution for intravenous administration. […] Phosphate buffered saline (PBS) was used as the vehicle for LB-100 administration in preclinical efficacy studies and sodium bicarbonate 4.2% for injection was used as the vehicle for GLP toxicity studies.
# [2] = Non-GLP dose ranging toxicity study, daily IV infusion x4 days (NCI); settings: male, Fischer, rat, in vivo, iv
# Method: (§1) In a non-GLP dose ranging study in male Fischer rats conducted by the NCI, LB-100 was administered by daily intravenous (IV) infusion at 0.5, 0.75 and 1.5 mg/kg/day for 4 consecutive days.
# male Fischer rats = assay: as above
# Method: as §1
# [3] = Toxicokinetics in GLP repeat-dose rat study; settings: Sprague Dawley, in vivo, iv, 0.75 mg/kg/day, study Day 4
# Source text: These changes were reversible. […] Inflammation was often accompanied by mesothelial hypertrophy.
# beagle dogs = assay: Non-GLP dose ranging toxicity study, IV every 4 days x4 doses; type: in vivo, dog
# [4] = test system: male and female beagle dogs; assay: GLP repeat dose toxicity study, IV daily x5 days
# Method: In the GLP repeat dose dog study, LB-100 was administered by intravenous injection (slow bolus push) at dose levels of 0.15, 0.30, and 0.75 mg/kg daily for 5 consecutive days.
# Multilead (I, II, III, aVR, aVL, aVF, and V2) ECGs were recorded for all animals prior to randomization (Day −8) and for all surviving animals on Day 4 (recorded approximately 2 to 4 hours following dose administration) and Day 27.
# Blood pressure (systolic, diastolic, and mean arterial pressure) data were recorded for all animals once during the pretest period (Day −8) and for all surviving animals on study Day 4 (recorded approximately 2 to 4 hours following dose administration) and Day 27.
# advanced solid tumors = assay: Phase I Part 1 single agent LB-100: tumor response (RECIST 1.1); type: in vivo, human
# Source text: Two dose regimens are explored.
# Although response is not the primary endpoint of this study, patients with measurable disease will be assessed at baseline and during the study by standard criteria. Patients should be reevaluated after receiving 2 cycles of study therapy and then after every 2 cycles thereafter. In the event objective response (PR or CR) is noted, changes in tumor measurements must be confirmed by repeat assessments that should be performed at least 4 weeks after the criteria for response are first met.
# Response and progression will be evaluated in this study using the international criteria (version 1.1) proposed by the Response Evaluation Criteria in Solid Tumors (RECIST) Committee [Eur J Cancer. 45 (2009) 228-247]. Changes in only the largest diameter (unidimensional measurement) of the tumor lesions are used in the RECIST 1.1 guidelines. Note: Lesions are either measurable or non-measurable using the criteria provided below.
# • Complete Response (CR): Disappearance of all target lesions.
# The patient's best overall response assignment will depend on findings of both target and non-target disease and will also take into consideration the appearance of new lesions. It is assumed that at each protocol-specified time point, a response assessment occurs. Table provides a summary of the overall response status calculation at each time point for patients who have measurable disease at baseline.
# In the case of SD, follow-up measurements must have met the SD criteria at least once after study entry at a minimum interval at 5 weeks.
# TNBC cell lines = assay: Cytotoxicity against TNBC cells; type: cell-based; settings: single agent; present-tense example
# Method: LB-100 inhibits PP2A activity and is cytotoxic to TNBC cells. LB-100 synergizes with chemotherapeutic drugs to enhance cytotoxicity against TNBC cells. LB-100 also enhances the effects of chemotherapy in TNBC xenografts. LB-100 chemosensitizes doxorubicin and cisplatin to TNBC cells and/or has a synergistic cytotoxic effect with doxorubicin and/or cisplatin against TNBC cells.
# Both doxorubicin (0.2 μg/ml) and cisplatin (2 μg/ml) in combination with LB-100 are cytotoxic to TNBC cell lines. The addition of LB-100 sensitizes TNBC cells to doxorubicin and cisplatin. TNBC cell lines include HCC1599, HCC1937, HCC1599, MDA-MB-468, HCC38, HCC70, HCC1806, HCC1187, DU4475, BT-549, Hs-578T, MDA-MB-231, MDA-MB-436, MDA-MB-157, MDA-MB-453, BT-20, and HCC1395.
# [5] = test system: HeLa cells, OS-17, MKN28, MKN45, MGC803, and SGC7901 cells; assay: Growth of Mad2-overexpressing cell lines in vitro; type: cell-based, human; settings: all cell lines; present-tense example
# Method: Compound LB-100 inhibits PP2A phosphatase in cancer cells which in turn induces Mad-2 phosphorylation while suppressing Mad-2 protein levels. In order to characterize the effects of LB-100 on cancers overexpressing Mad2, tumor cell lines carrying Mad2-overexpressing mutations are tested. LB-100 inhibits the growth of the cancer cells in in vitro assays. […] Exposure to LB-100 reduces the expression of Mad-2 in the cells.
# Mad2-overexpressing HeLa cells (HeLa Mad-2 O/E), osteosarcoma human cells (OS-17) and gastric cell lines (MKN28, MKN45, MGC803, and SGC7901) express high levels of Mad2 (Yu, L. et al. 2010). LB-100 inhibits the growth of the HeLa cells, OS-17, MKN28, MKN45, MGC803, and SGC7901 cells in vitro. […] Exposure to LB-100 reduces the expression of Mad-2 in all cell lines.
# [6] = test system: patients with advanced solid tumors; settings: in vivo
# Method: This is a Phase I, open label, multicenter, two-part, dose-escalation study of LB-100 administered intravenously in patients with advanced solid tumors. Two dose regimens are explored. In the first regimen (Part 1), single agent LB-100 is given daily on Days 1 through 3 of every 21 day cycle. In the second regimen (Part 2), docetaxel-naïve patients are treated with LB-100 given daily on Days 1 through 3 in combination with a fixed dose of docetaxel (either 60 mg/m^2 or 75 mg/m^2) given on Day 2 of every 21 day cycle. Once the MTD of single agent LB-100 is reached, 3 additional patients are enrolled in an MTD confirmation cohort. Part 2 enrolls patients once the MTD of single agent LB-100 is determined in Part 1.
# The starting dose of L8-100 for Part 1 is 0.25 mg/m^2. The starting dose of LB-100 for Part 2 is 2 dose levels below the MTD determined in Part 1, administered in combination with docetaxel 60 mg/m^2. Once the MTD of LB-100+docetaxel 60 mg/m^2 is determined, the dose of LB-100 is reduced 2 dose levels and administered in combination with docetaxel 75 mg/m^2. The dose of LB-100 is then be escalated to the full LB-100 dose (of the LB-100+docetaxel 60 mg/m^2 MTD) and administered in combination with docetaxel 75 mg/m^2. Once the MTD of the combination of LB-100+docetaxel (either 60 mg/m^2 or 75 mg/m^2) is reached, 3 additional patients are enrolled in an MTD/RD confirmation cohort.
# LB-100 is administered in escalating dose levels. Enrollment in each dose cohort proceeds in the standard “3+3” schema. In each cohort, the first patient enrolled completes Cycle 1 treatment and safety monitoring prior to the enrollment of the second and third patients; the second and third patients may be enrolled simultaneously. DLTs are evaluated and recorded during the first 2 cycles of treatment.
# Initially, the decision to escalate to the next dose level is be based on the observation of DLT during Cycle 1. If no DLT is observed, escalation proceeds to the next cohort. If a DLT is observed in Cycle 2 in the study, the escalation strategy is evaluated moving forward. Escalation continues until the maximum administered dose (MAD), maximum tolerated dose (MTD) and recommended dose (RD) are determined.
# On Days 1, 2 and 3 of each cycle, LB-100 was infused over 15 minutes.
# LB-100 was administered daily on Days 1 through 3 of every 21 day cycle to patients at the following dose levels:
# Enrollment in each dose cohort will proceed in the standard “3+3” schema where 3 patients are initially enrolled per cohort; Scheme 2. In each cohort, the first patient enrolled will complete Cycle 1 treatment and safety monitoring prior to the enrollment of the second and third patients; the second and third patients may be enrolled simultaneously. Dose limiting toxicities (DLTs) will be evaluated and recorded during the first 2 cycles of treatment. Initially, the decision to escalate to the next dose level will be based on the observation of DLT during Cycle 1. If no DLT is observed, escalation will proceed to the next cohort. Note: if a DLT is observed in Cycle 2 in the study, the escalation strategy will be evaluated moving forward. If, however, DLT is observed in 1 of the 3 patients, an additional 3 patients must be enrolled at that dose. In a cohort of 6, if one patient has DLT, then dose escalation may proceed; if 2 or more patients have DLT, then that dose will be considered the maximum administered dose (MAD) and dose escalation will cease. The MTD is defined as one dose level below the MAD. Once the MTD of single agent LB-100 is reached, 3 additional patients will be enrolled in an MTD confirmation cohort. At least 6 patients must be treated at the MTD to determine the safety of that dose as a basis for the starting dose of LB-100 in Part 2 of this study.
# The NCI Common Terminology Criteria for Adverse Events (CTCAE) Version 4.0 will be used to grade toxicity.
# [7] = test system: human glioblastoma cell line, U373; settings: simultaneous exposure, US 2010/0029683 A1; cited from earlier work
# in vivo = settings: beagle, dog, 0.15 mg/kg
# [8] = test system: male and female Sprague Dawley rats; assay: GLP repeat-dose toxicity study, daily IV slow bolus x5 days
compound,measurement,setting,value
CCN1CCCC1CNC(=O)c1cc(S(=O)(=O)CC)c(NC)cc1OC (stereo not drawn) [LB-102],phosphorylation of Akt,Akt,increased
"CN1CCN(C(=O)C2C(C(=O)O)[C@H]3CC[C@@H]2O3)CC1 (mixture of isomers) [LB-100, 3-(4methylpiperazine-carbonyl)-7-oxalobicyclo[2.2.1]heptane-2-carboxylic acid]",water solubility,[1]; enantiomeric zwitterion,water soluble
same,stability of formulation,[1]; refrigerated temperatures,at least 8 hours
same,stability of formulation,[1]; −20° C.,stable for months
same,racemization of separated enantiomers,[1]; in solution,racemize rapidly
same,MTD at 4 days,[2],0.75 mg/kg/day
same,nephrosis severity,male Fischer rats; 0.75 mg/kg/day,mild
same,no-observed-adverse-effect-level (NOAEL),"male Fischer rats; 0.5, 0.75 and 1.5 mg/kg/day x4 days",not established
same,heart toxicity,male Fischer rats; 0.75 and 1.5 mg/kg/day groups,epicardial hyperplasia with inflammation primarily on the epicardium of the atria
same,MTD,"male Fischer rats; IV daily for 4 days, converted dose",about 4.5 mg/m^2
same,unscheduled deaths,male Fischer rats; any treatment group,no unscheduled deaths
same,dose-limiting toxicities,"male Fischer rats; rat, in vivo, iv","Kidney, heart, femoral bone, liver and urinary bladder toxicity"
same,AUC(0-t),"[3]; female, females",691 ng·h/mL
same,C0,"[3]; female, females",2350 ng/mL
same,AUC(0-t),"[3]; male, males",596 ng·h/mL
same,C0,"[3]; male, males",1800 ng/mL
same,possible test article-related clinical observation,"beagle dogs; 1.0 mg/kg, one female, study Day 13",intermittent tremors
same,survival,beagle dogs; 0.1-1.0 mg/kg,no LB-100-related effects on survival
same,body weight gain and food consumption,"beagle dogs; 0.5 and 1.0 mg/kg, females",lower body weight gains and food consumption
same,no-observed-effect level (NOEL),beagle dogs; IV every 4 days x4 doses,0.25 mg/kg
same,signs of toxicity,"beagle dogs; dog, in vivo, 1 mg/kg",almost no signs of toxicity
same,tolerability,[4]; 0.15 mg/kg/day,well tolerated
same,"test article-related lethality, animals","[4]; 0.75 mg/kg/day group, before fourth dose",2 of 10
same,Highest Non-Severely Toxic Dose (HNSTD),[4]; daily IV x5 days,0.15 mg/kg
same,ECGs,"[4]; dog, in vivo",within normal limits
same,blood pressure,"[4]; dog, in vivo",unaffected
same,duration of stable disease,"advanced solid tumors; Patient 10, pancreatic cancer, 0.83 mg/m^2",39 weeks
same,time remained stable since starting LB-100,"advanced solid tumors; Patient 10, pancreatic cancer, interim (8 cycles)",6 months
same,cycles on treatment with stable disease,"advanced solid tumors; Patient 17, metastatic thymoma, DL5 1.75 mg/m^2",7 cycles and 8 cycles
same,cycles of stable disease,"advanced solid tumors; breast, ovarian, carcinoid and testicular cancer patients",4-6 cycles
same,cytotoxicity to TNBC cells,TNBC cell lines,cytotoxic
same,cytotoxicity,[5],Dose-dependent cytotoxicity
same,adverse events,[6]; human,No adverse events attributable to LB-100
same,dyspnea,[6]; human,grade 1
same,tolerability,[6]; human,without any symptoms attributable to LB-100
same,"vomiting, related to LB-100",[6]; human,grade 3
same,adverse events attributed to a bleeding rectal mass,"[6]; human, 1 cycle",grade 3 anemia and grade 2 weakness
same,"neuropathy, possibly related to LB-100","[6]; human, 4 cycles",Grade 1
same,adverse events,[6],No new adverse events
same,dose limiting toxicity,[6],no dose limiting toxicity
same,relation of pulmonary embolism to treatment,[6],not related
same,cytotoxic effect of cisplatin,[7],enhanced
same,cytotoxic effect of doxorubicin,[7],enhanced
same,cytotoxic effect of taxol,[7],enhanced
same,cytotoxic effect of temozolomide,[7],enhanced
same,AUC(0-t),in vivo; female,335 ng·h/mL
same,AUC(0-t),in vivo; male,267 ng·h/mL
same,epicardium and subepicardium of atria,"[8]; 0.5, 0.75, 1.25 mg/kg/day males, 1.25 mg/kg/day females",Minimal to mild subacute inflammation
same,kidney finding,"[8]; 0.75 and 1.25 mg/kg/day, males and females","adverse, test article-related nephrosis of the kidneys"
same,test article-related effects on urinalysis parameters,"[8]; Day 5, reversible",observed in all treatment groups
same,severely toxic dose in 10% of the animals (STD 10),[8]; daily IV x5 days,0.75 mg/kg/day
